For 15 compounds, IC50 and Activity results are on record in ChEMBL document CHEMBL1150776, “Naturally occurring pentacyclic triterpenes as inhibitors of glycogen phosphorylase: synthesis, structure-activity relationships, and X-ray crystallographic studies” (J Med Chem, 2008).

Calls of active or inactive are those of the source. The rule behind the calls is not given here.

Assay [1] has as its target T1, Glycogen phosphorylase, muscle form (Oryctolagus cuniculus, UniProt P00489).
T1 sequence (P00489 whole entry): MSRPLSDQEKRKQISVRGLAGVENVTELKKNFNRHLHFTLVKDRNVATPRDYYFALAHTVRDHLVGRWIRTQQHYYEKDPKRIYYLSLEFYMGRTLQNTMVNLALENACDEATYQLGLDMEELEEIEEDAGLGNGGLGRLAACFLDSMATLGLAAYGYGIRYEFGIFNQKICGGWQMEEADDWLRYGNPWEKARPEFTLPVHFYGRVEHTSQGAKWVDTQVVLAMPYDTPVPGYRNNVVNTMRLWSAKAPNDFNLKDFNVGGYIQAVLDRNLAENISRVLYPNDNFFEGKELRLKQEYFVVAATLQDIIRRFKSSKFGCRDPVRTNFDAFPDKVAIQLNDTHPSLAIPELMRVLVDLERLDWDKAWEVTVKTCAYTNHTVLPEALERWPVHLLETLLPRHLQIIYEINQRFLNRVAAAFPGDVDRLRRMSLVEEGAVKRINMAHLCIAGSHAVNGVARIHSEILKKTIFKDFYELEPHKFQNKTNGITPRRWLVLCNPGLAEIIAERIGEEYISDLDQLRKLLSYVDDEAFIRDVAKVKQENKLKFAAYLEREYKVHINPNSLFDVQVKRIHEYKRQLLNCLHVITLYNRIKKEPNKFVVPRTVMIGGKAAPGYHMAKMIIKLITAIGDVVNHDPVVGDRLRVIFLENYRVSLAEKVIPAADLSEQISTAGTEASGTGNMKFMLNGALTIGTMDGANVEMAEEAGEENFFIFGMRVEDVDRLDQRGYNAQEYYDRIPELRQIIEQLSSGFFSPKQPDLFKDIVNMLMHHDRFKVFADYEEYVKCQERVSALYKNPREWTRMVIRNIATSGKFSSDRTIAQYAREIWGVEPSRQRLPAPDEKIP
In words: (§1) Inhibition of rabbit muscle glycogen phosphorylase A assessed as phosphate release from glucose-1-phosphate.

Assay [2] deals with T2, Glycogen phosphorylase, muscle form (Oryctolagus cuniculus) (UniProt P00489).
T2 sequence (whole entry): T1 sequence (P00489 whole entry)
The assay is described as §1.

Assay [3] has as its target T2, Glycogen phosphorylase, muscle form (Oryctolagus cuniculus). In words: Inhibition of rabbit muscle glycogen phosphorylase A assessed as phosphate release from glucose-1-phosphate at 2000 uM.

In general, IC50 refers to the concentration that inhibits the measured activity by half. `C[C@H]1[C@H](C)CC[C@]2(C(=O)O)CC[C@]3(C)C(=CC[C@@H]4[C@@]5(C)CC[C@@H](O)C(C)(C)[C@@H]5CC[C@]43C)[C@H]12`: the IC50 in assay [1] came out at 19 µM.
With `C[C@H]1[C@H](C)CC[C@]2(C(=O)O)CC[C@]3(C)C(=CC[C@@H]4[C@@]5(C)C[C@@H](O)[C@H](O)[C@@](C)(CO)[C@@H]5[C@H](O)C[C@]43C)[C@H]12`, the result in assay [2] was inactive.
As to `C=C(C)[C@@H]1CC[C@]2(C(=O)O)CC[C@]3(C)[C@H](CC[C@@H]4[C@@]5(C)CC[C@H](O)C(C)(C)[C@@H]5CC[C@]43C)[C@@H]12` [BETULINIC ACID], the IC50 in assay [1] stood at 43 µM.
The same measure, in the same setting: the value for `CC1(C)[C@@H](O[C@H]2O[C@H](C(=O)O)[C@@H](O)[C@H](O)[C@H]2O[C@@H]2O[C@H](C(=O)O)[C@@H](O)[C@H](O)[C@H]2O)CC[C@]2(C)[C@H]3C(=O)C=C4[C@@H]5C[C@@](C)(C(=O)O)CC[C@]5(C)CC[C@@]4(C)[C@]3(C)CC[C@@H]12` [GLYCYRRHIZIN] was 822 µM.
With `CC1(C)[C@@H](O)CC[C@]2(C)[C@H]3C(=O)C=C4[C@@H]5C[C@@](C)(C(=O)O)CC[C@]5(C)CC[C@@]4(C)[C@]3(C)CC[C@@H]12` [ENOXOLONE], the IC50 in assay [1] is 66 µM.
Still for that read-out and setting: the value for `C=C(C)[C@@H]1CC[C@]2(C(=O)O)CC[C@]3(C)[C@H](CC[C@@H]4[C@@]5(C)CC[C@H](O)[C@@](C)(CO)[C@@H]5CC[C@]43C)[C@@H]12` was 16 µM.
On to `C[C@H]1[C@H](C)CC[C@]2(C(=O)O[C@@H]3O[C@H](CO[C@@H]4O[C@H](CO)[C@@H](O[C@@H]5O[C@@H](C)[C@@H](O)[C@H](O)[C@@H]5O)[C@H](O)[C@H]4O)[C@@H](O)[C@H](O)[C@H]3O)CC[C@]3(C)C(=CC[C@@H]4[C@@]5(C)C[C@@H](O)[C@H](O)[C@@](C)(CO)[C@@H]5[C@H](O)C[C@]43C)[C@H]12`, for which the result in assay [2] was inactive.
Regarding `C[C@H]1[C@H](C)CC[C@]2(C(=O)O[C@@H]3O[C@H](CO)[C@@H](O)[C@H](O)[C@H]3O)CC[C@]3(C)C(=CC[C@@H]4[C@@]5(C)CC[C@H](O)C(C)(C)[C@@H]5CC[C@]43C)[C@H]12`, the IC50 in assay [1] turned out to be 97 µM.
On the same count and under the same terms, to `CC1(C)CC[C@]2(C(=O)O[C@@H]3O[C@H](CO)[C@@H](O)[C@H](O)[C@H]3O)CC[C@]3(C)C(=CC[C@@H]4[C@@]5(C)CC[C@H](O)C(C)(C)[C@@H]5CC[C@]43C)[C@@H]2C1` belongs 293 µM.
For `C[C@H]1[C@H](C)CC[C@]2(C(=O)O[C@@H]3O[C@H](CO[C@@H]4O[C@H](CO)[C@@H](O[C@@H]5O[C@H](C)[C@H](O)[C@@H](O)[C@H]5O)[C@H](O)[C@H]4O)[C@@H](O)[C@H](O)[C@H]3O)CC[C@]3(C)C(=CC[C@@H]4[C@@]5(C)C[C@@H](O)[C@H](O)[C@@](C)(CO)[C@@H]5CC[C@]43C)[C@H]12`, in assay [3], the result was inactive.
On to `C[C@H]1[C@H](C)CC[C@]2(C(=O)O[C@@H]3O[C@H](CO)[C@@H](O)[C@H](O)[C@H]3O)CC[C@]3(C)C(=CC[C@@H]4[C@@]5(C)C[C@@H](O)[C@H](O)C(C)(C)[C@@H]5CC[C@]43C)[C@H]12`, for which the IC50 in assay [1] is 106 µM.
Still for that read-out and setting: to `C[C@H]1[C@H](C)CC[C@]2(C(=O)O)CC[C@]3(C)C(=CC[C@@H]4[C@@]5(C)CCC(=O)C(C)(C)[C@@H]5CC[C@]43C)[C@H]12` [URSONIC ACID] belongs 57 µM; to `C=C(C)[C@@H]1CC[C@]2(CO)CC[C@]3(C)[C@H](CC[C@@H]4[C@@]5(C)CC[C@H](O)C(C)(C)[C@@H]5CC[C@]43C)[C@@H]12` [BETULIN], 17 µM; to `C[C@H]1[C@H](C)CC[C@]2(C(=O)O)CC[C@]3(C)C(=CC[C@@H]4[C@@]5(C)CC[C@H](O)C(C)(C)[C@@H]5CC[C@]43C)[C@H]12` [URSOLIC ACID], 9 µM.
Same read-out and setting: to `CC1(C)[C@@H](O)CC[C@]2(C)[C@H]3CC=C4[C@@H]5C[C@@](C)(C(=O)O)CC[C@]5(C)CC[C@@]4(C)[C@]3(C)CC[C@@H]12` belongs 82 µM.
